The text below walks through data of patent publication US8178506B2, “Oligomeric compounds and compositions for use in modulation of small non-coding RNAs” (Regulus Therapeutics Inc., priority 2003, dated 2012).

e = 2'-O-(2-methoxyethyl) (MOE); d = 2'-deoxy (DNA)

The series relates to IL-6 mRNA. Description: IL-6 mRNA in LPS-activated primary murine macrophages. It counts as cell-based, mouse. The conditions noted are these: average of 3 treatments. In outline:
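Thioglycollate-elicited peritoneal macrophages from female C57Bl/6 mice, transfected with miRNA-targeting oligomeric compounds via FuGENE 6 (1 μL per 100 nM compound) for ~24–28 h at 37 °C, optionally primed 4 h with 100 ng/mL IFN-gamma, then stimulated 24 h with 100 ng/mL LPS. IL-6 mRNA quantified by real-time PCR.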

As to “129690 (antisense TTAGAATACGTCGCGTTATG; sugars from the 5' end e5 d10 e5, all phosphorothioate, methylation of C not given here) [compound 129690]”, the “IL-6 mRNA expression, % UTC” value is reported as 92 % UTC (75 nM, +IFN); 98 % UTC (75 nM, −IFN); 86 % UTC (150 nM, +IFN); 99 % UTC (150 nM, −IFN); 94 % UTC (300 nM, +IFN); 109 % UTC (300 nM, −IFN). The “IL-6 mRNA expression, % UTC” value reads like this: (600 nM, +IFN) 203 % UTC; (600 nM, −IFN) 258 % UTC.
